Source: patent US20060069132A1, “Azolecarboxamide herbicides” (priority 2004, published 2006)

What was measured:
Test in all cases: Test E pre-/postemergence herbicide test
green foxtail = type: in vivo, Setaria viridis
In short: (§1)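 Seeds were planted and treated preemergence with test chemicals in a non-phytotoxic solvent mixture containing surfactant; plants at 2 to 18 cm (1- to 4-leaf stage) received postemergence applications of the same formulation. After 12 to 14 days in a greenhouse, injury was visually rated against untreated controls on a 0 to 100 scale.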

goosegrass = type: in vivo, Eleusine indica
In short: as §1

common ragweed = type: in vivo, Ambrosia elatior
In short: as §1

mustard = type: in vivo, Brassica nigra
In short: as §1

dallisgrass = type: in vivo, Paspalum dilatatum
In short: as §1

southern sandbur = type: in vivo, Cenchrus echinatus
In short: as §1

Italian ryegrass = type: in vivo, Lolium multiflorum
In short: as §1

tropical spiderwort = type: in vivo, Commelina benghalensis
In short: as §1

Canada horseweed = type: in vivo, Erigeron Canadensis; conditions: Preemergence
Text: Seeds of plant species selected from bipinnate beggarticks (Bidens bipinnata L.), hairy beggarticks (Bidens radiata Thuill.), bermudagrass (Cynodon dactylon (L.) Pers.), Surinam grass (Urochloa decumbens (Staph) R. D. Webster, previously named Brachiaria decumbens Stapf), large crabgrass (Digitaria sanguinalis (L.) Scop.), green foxtail (Setaria viridis (L.) P. Beauv.), goosegrass (Eleusine indica (L.) Gaertn.), johnsongrass (Sorghum halepense (L.) Pers.), kochia (Kochia scoparia (L.) Schrad.), pitted morningglory (Ipomoea lacunosa L.), purple nutsedge (Cyperus rotundus L.), common ragweed (Ambrosia elatior L.), mustard (Brassica nigra (L.) W. D. J. Koch), guineagrass (Panicum maximum Jacq.), dallisgrass (Paspalum dilatatum Poir.), barnyardgrass (Echinochloa crus-galli (L). P. Beauv.), southern sandbur (Cenchrus echinatus L.), common sowthistle (Sonchus oleraceous L.), prickly sida (Sida spinosa L.), Italian ryegrass (Lolium multiflorum Lam.), common purslane (Portulaca oleracea L.), broadleaf signalgrass (Brachiaria platyphylla (Griseb.) Nash), common groundsel (Senecio vulgaris L.), common chickweed (Stellaria media (L.) Vill/Cyr.), tropical spiderwort (Commelina benghalensis L.), annual bluegrass (Poa annua L.), downy bromegrass (Bromus tectorum L.), itchgrass (Rottboellia cochinchinensis (L.) L.f.), quackgrass (Elytrigia repens (L.) Nevski), Canada horseweed (Erigeron Canadensis L.), field bindweed (Convolvulus arvensis L.), spotted spurge (Euphorbia maculata L.), common mallow (Malva sylvestris (=s silvestris) L.), and Russian thistle (Salsola kali L. ssp. Ruthenica (Iljin) Soo) were planted and treated preemergence with test chemicals formulated in a non-phytotoxic solvent mixture which included a surfactant.
At the same time, plants selected from these weed species were treated with postemergence applications of some of the test chemicals formulated in the same manner. Plants ranged in height from 2 to 18 cm (1- to 4-leaf stage) for postemergence treatments. Treated plants and controls were maintained in a greenhouse for 12 to 14 days, after which time all species were compared to controls and visually evaluated. Plant response ratings, summarized in Table E, are based on a scale of 0 to 100 where 0 is no effect and 100 is complete control. A dash (-) response means no test result.

common mallow = type: in vivo, Malva sylvestris
In short: as §1

[1] = Postemergence, 250 g ai/ha, scale 0 to 100
[2] = Preemergence, 62 g ai/ha, scale 0 to 100
[3] = Preemergence, 125 g ai/ha, scale 0 (no effect) to 100 (complete control)
[4] = Preemergence, 250 g ai/ha, scale 0 (no effect) to 100 (complete control)
[5] = Preemergence, 500 g ai/ha, scale 0 (no effect) to 100 (complete control)
[6] = postemergence, 125 g ai/ha, scale 0 to 100
[7] = postemergence, 62 g ai/ha, scale 0 to 100

CCNC(=O)c1ccc(F)c(NC(=O)c2cc(C(C)(C)C)nn2CC)c1 [Compound 2, 3-(1,1-dimethylethyl)-1-ethyl-N-[5-[(ethylamino)carbonyl]-2-fluorophenyl]-1H-pyrazole-5-carboxamide]
Plant response rating, Foxtail, Green (green foxtail; [1]): 95
Plant response rating, Foxtail, Green (green foxtail; [2]): 40
Plant response rating, Foxtail, Green (green foxtail; [3]): 80
Plant response rating, Foxtail, Green (green foxtail; [4]): 100
Plant response rating, Foxtail, Green (green foxtail; [5]): 100
Plant response rating, Foxtail, Green (green foxtail; [6]): 90
Plant response rating, Foxtail, Green (green foxtail; [7]): 60
Plant response rating, Goosegrass (goosegrass; [1]): 98
Plant response rating, Goosegrass (goosegrass; [2]): 80
Plant response rating, Goosegrass (goosegrass; [3]): 90
Plant response rating, Goosegrass (goosegrass; [4]): 95
Plant response rating, Goosegrass (goosegrass; [5]): 95
Plant response rating, Goosegrass (goosegrass; [6]): 95
Plant response rating, Goosegrass (goosegrass; [7]): 95
Plant response rating, Ragweed (common ragweed; [2]): 20
Plant response rating, Ragweed (common ragweed; [3]): 60
Plant response rating, Ragweed (common ragweed; [4]): 70
Plant response rating, Ragweed (common ragweed; [5]): 85
Plant response rating, Ragweed (common ragweed; [6]): 80
Plant response rating, Ragweed (common ragweed; [7]): 60
Plant response rating, Black Mustard (mustard; [1]): 100
Plant response rating, Black Mustard (mustard; [2]): 60
Plant response rating, Black Mustard (mustard; [3]): 100
Plant response rating, Black Mustard (mustard; [4]): 100
Plant response rating, Black Mustard (mustard; [5]): 100
Plant response rating, Black Mustard (mustard; [6]): 95
Plant response rating, Black Mustard (mustard; [7]): 90
Plant response rating, Dallisgrass (dallisgrass; [1]): 90
Plant response rating, Dallisgrass (dallisgrass; [2]): 60
Plant response rating, Dallisgrass (dallisgrass; [3]): 90
Plant response rating, Dallisgrass (dallisgrass; [4]): 95
Plant response rating, Dallisgrass (dallisgrass; [5]): 95
Plant response rating, Dallisgrass (dallisgrass; [6]): 80
Plant response rating, Dallisgrass (dallisgrass; [7]): 75
Plant response rating, Sandbur (southern sandbur; [1]): 95
Plant response rating, Sandbur (southern sandbur; [2]): 60
Plant response rating, Sandbur (southern sandbur; [3]): 70
Plant response rating, Sandbur (southern sandbur; [4]): 80
Plant response rating, Sandbur (southern sandbur; [5]): 100
Plant response rating, Sandbur (southern sandbur; [6]): 75
Plant response rating, Sandbur (southern sandbur; [7]): 65
Plant response rating, Ryegrass, Italian (Italian ryegrass; [1]): 98
Plant response rating, Ryegrass, Italian (Italian ryegrass; [2]): 60
Plant response rating, Ryegrass, Italian (Italian ryegrass; [3]): 80
Plant response rating, Ryegrass, Italian (Italian ryegrass; [4]): 95
Plant response rating, Ryegrass, Italian (Italian ryegrass; [5]): 95
Plant response rating, Ryegrass, Italian (Italian ryegrass; [6]): 90
Plant response rating, Ryegrass, Italian (Italian ryegrass; [7]): 80
Plant response rating, Spiderwort (tropical spiderwort; [1]): 70
Plant response rating, Spiderwort (tropical spiderwort; [2]): 20
Plant response rating, Spiderwort (tropical spiderwort; [3]): 60
Plant response rating, Spiderwort (tropical spiderwort; [4]): 70
Plant response rating, Spiderwort (tropical spiderwort; [5]): 100
Plant response rating, Spiderwort (tropical spiderwort; [7]): 20
Plant response rating, Horseweed (Canada horseweed; 62 g ai/ha, scale 0 to 100): 80
Plant response rating, Horseweed (Canada horseweed; 125 g ai/ha, scale 0 (no effect) to 100 (complete control)): 100
Plant response rating, Horseweed (Canada horseweed; 250 g ai/ha, scale 0 (no effect) to 100 (complete control)): 100
Plant response rating, Horseweed (Canada horseweed; 500 g ai/ha, scale 0 (no effect) to 100 (complete control)): 100
Plant response rating, Mallow (common mallow; [1]): 80
Plant response rating, Mallow (common mallow; [2]): 30
Plant response rating, Mallow (common mallow; [4]): 50
Plant response rating, Mallow (common mallow; [5]): 80
Plant response rating, Mallow (common mallow; [6]): 75
Plant response rating, Mallow (common mallow; [7]): 50
